Test results as given in ChEMBL document CHEMBL5356976, “Discovery of an adjuvant that resensitizes polymyxin B-resistant bacteria” (2024).
≈ marks a conversion by molar mass, not a printed value. Calls of active or inactive are those of the source. The calls are words filed in the database; no cut-off is given here. Bridge positions count the residues as written; N and C are the ends. Square brackets hold non-standard residues; d marks the D form. Peptide text beside a SMILES is read from it. * marks the point of attachment. X1 = CC[C@H](C)CCCCC(=O)*; Dab = NCC[C@H](N)C(=O)O

Columns and labels:
[1] = tested on: Escherichia coli; assay: Antibacterial activity against Escherichia coli MG1655; type: functional
[2] = tested on: Escherichia coli; assay: Antibacterial activity against resistant Escherichia coli MG1655; type: functional
[3] = tested on: Escherichia coli; assay: Antibacterial activity against polymyxin-B resistant Escherichia coli MG1655; type: functional
[4] = tested on: Escherichia coli; assay: Synergistic antibacterial activity against polymyxin B resistant Escherichia coli MG1655 assessed as fractional inhibitory concentration by checkerboard assay; type: functional
[5] = tested on: Escherichia coli; assay: Synergistic antibacterial activity against polymyxin B resistant Escherichia coli MG1655 assessed as fold reduction in polymyxin B MIC by checkerboard assay; type: functional
[6] = tested on: Escherichia coli; assay: Additive antibacterial activity against Escherichia coli MG1655 assessed as fold reduction in polymyxin B MIC at 100 mg/L by checkerboard assay; type: functional
[7] = tested on: Staphylococcus aureus; assay: Synergistic antibacterial activity against Staphylococcus aureus ATCC 29213 assessed as fold reduction in melittin activity at 75 mg/l by checkerboard assay; type: functional
[8] = tested on: Cell membrane; assay: Induction of membrane permeabilization in polymyxin-B resistant Escherichia coli MG1655 assessed as fluorescence increase incubated for 10 mins in presence of polymyxin B by DiSC3(5) dye based fluorescence spectrometer analysis; type: subcellular
[9] = tested on: Cell membrane; assay: Induction of membrane permeabilization in polymyxin-B resistant Escherichia coli MG1655 assessed as fluorescence increase incubated for 10 mins in presence of triton X-100 by DiSC3(5) dye based fluorescence spectrometer analysis; type: subcellular
[10] = tested on: Cell membrane; assay: Induction of membrane permeabilization in polymyxin-B resistant Escherichia coli MG1655 assessed as increase in fluorescence by DiSC3(5) staining based fluorescence spectrometer analysis (reference value: 8.5); type: subcellular
[11] = tested on: Cell membrane; assay: Induction of membrane permeabilization in polymyxin-B resistant Escherichia coli MG1655 assessed as increase in fluorescence after 4 mins by DiSC3(5) staining based fluorescence spectrometer analysis (reference value: 8.5); type: subcellular
[12] = tested on: Escherichia coli; assay: Antibacterial activity against Escherichia coli MG1655 in presence of 6.25 mg/l perforone; type: functional
[13] = tested on: Escherichia coli; assay: Antibacterial activity against Escherichia coli MG1655 in presence of 50 mg/l perforone; type: functional

## CC[C@H]1OC(=O)[C@H](C)[C@@H](O[C@H]2C[C@@](C)(OC)[C@@H](O)[C@H](C)O2)[C@H](C)[C@@H](O[C@@H]2O[C@H](C)C[C@H](N(C)C)[C@H]2O)[C@](C)(O)C[C@@H](C)CN(C)[C@H](C)[C@@H](O)[C@]1(C)O [AZITHROMYCIN]
[1]
  MIC: 4 µg/mL (≈ 5.34 µM)
[2]
  MIC: 128 µg/mL (≈ 171 µM)

## C[C@H]1c2cccc(O)c2C(=O)C2=C(O)[C@]3(O)C(=O)C(C(N)=O)=C(O)[C@@H](N(C)C)[C@@H]3[C@@H](O)[C@@H]21.O [DOXYCYCLINE]
[1]
  MIC: 0.25 µg/mL
[2]
  MIC: 60 µg/mL

## CC(C)C[C@@H]1NC(=O)[C@@H](Cc2ccccc2)NC(=O)[C@H](CCN)NC(=O)[C@@H](NC(=O)[C@H](CCN)NC(=O)[C@@H](NC(=O)[C@@H](N)CCN)[C@@H](C)O)CCNC(=O)[C@H]([C@@H](C)O)NC(=O)[C@H](CCN)NC(=O)[C@H](CCN)NC1=O (H-[Dab]T[Dab][Dab][Dab][dF]L[Dab][Dab]T; lactam 4-C)
[3]
  Activity: Active

## COc1c2c(nc3occc13)[C@@]1(OC)CCC(C)(C)O[C@@]1(O)CC2
[4]
  FIC: 0.19
[5]
  fold change (FC): 16
[6]
  fold change (FC): 2
[7]
  fold change (FC): 2
[8]
  Activity: inactive
[9]
  Activity: inactive
[10]
  Flu intensity: 29.2 a.u.
[11]
  Flu intensity: 19.7 a.u.

## CC[C@H](C)CCCCC(=O)N[C@@H](CCN)C(=O)N[C@H](C(=O)N[C@@H](CCN)C(=O)N[C@H]1CCNC(=O)[C@H]([C@@H](C)O)NC(=O)[C@H](CCN)NC(=O)[C@H](CCN)NC(=O)[C@H](CC(C)C)NC(=O)[C@@H](Cc2ccccc2)NC(=O)[C@H](CCN)NC1=O)[C@@H](C)O (X1-[Dab]T[Dab][Dab][Dab][dF]L[Dab][Dab]T; lactam 4-C)
[1]
  MIC: 0.5 µg/mL (≈ 0.415 µM)
[2]
  MIC: 256 µg/mL (≈ 213 µM)
[3]
  MIC: 256 µg/mL (≈ 213 µM)
[12]
  MIC: 2 µg/mL
[13]
  MIC: 16 µg/mL
